Test results taken from ChEMBL document CHEMBL1201862, “PubChem BioAssay data set” (2004).
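Grown in 96-well plates, cells were treated for 48 hours with each compound at five concentrations. Insufficient inhibition: endpoint recorded as highest concentration tested. Abbreviation: GI50, concentration required for 50% inhibition of growth.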 The source made the active and inactive calls. Rule as the data show it: active = GI50 up to about 1.1 µM and inactive = higher.

Key:
Experiment in all cases: DTP human tumour cell line panel, 48 h
DU-145 = test system: DU-145
NCI-H460 = test system: NCI-H460
OVCAR-5 = test system: OVCAR-5
ACHN = test system: ACHN
UACC-257 = test system: UACC-257
Hs-578T = test system: Hs-578T
SW-620 = test system: SW-620
NCI-H226 = test system: NCI-H226
U-251 = test system: U-251
RPMI-8226 = test system: RPMI-8226
HCC 2998 = test system: HCC 2998
SK-MEL-28 = test system: SK-MEL-28
T47D = test system: T47D
IGROV-1 = test system: IGROV-1
HCT-116 = test system: HCT-116
MOLT-4 = test system: MOLT-4
SK-OV-3 = test system: SK-OV-3
KM12 = test system: KM12
BT-549 = test system: BT-549
COLO 205 = test system: COLO 205
M14 = test system: M14
SNB-19 = test system: SNB-19
HCT-15 = test system: HCT-15
OVCAR-3 = test system: OVCAR-3
EKVX = test system: EKVX
CCRF-CEM = test system: CCRF-CEM
MDA-MB-435 = test system: MDA-MB-435
MCF7 = test system: MCF7
SF-295 = test system: SF-295
OVCAR-8 = test system: OVCAR-8
NCI/ADR-RES = test system: NCI/ADR-RES
TK-10 = test system: TK-10
UACC-62 = test system: UACC-62
HOP-92 = test system: HOP-92
HT-29 = test system: HT-29
K562 = test system: K562
OVCAR-4 = test system: OVCAR-4
SK-MEL-5 = test system: SK-MEL-5
MDA-MB-231 = test system: MDA-MB-231
MDA-N = test system: MDA-N
HOP-62 = test system: HOP-62
SN12C = test system: SN12C
SF-268 = test system: SF-268
SK-MEL-2 = test system: SK-MEL-2
NCI-H23 = test system: NCI-H23
RXF 393 = test system: RXF 393
786-0 = test system: 786-0
A498 = test system: A498
SF-539 = test system: SF-539
SNB-75 = test system: SNB-75
UO-31 = test system: UO-31
A549 = test system: A549
Malme-3M = test system: Malme-3M
NCI-H522 = test system: NCI-H522
HL-60 = test system: HL-60
SR = test system: SR
LOX IMVI = test system: LOX IMVI
CAKI-1 = test system: CAKI-1
PC-3 = test system: PC-3

Compound: CC(=O)Nc1ccc(C(=O)NN2C(=O)CSC2c2ccccc2)cc1 (stereo unspecified)
- GI50 (DU-145): > 100 µM (inactive)
- GI50 (NCI-H460): > 100 µM (inactive)
- GI50 (OVCAR-5): > 100 µM (inactive)
- GI50 (ACHN): > 100 µM (inactive)
- GI50 (UACC-257): > 100 µM (inactive)
- GI50 (Hs-578T): > 100 µM (inactive)
- GI50 (SW-620): > 100 µM (inactive)
- GI50 (NCI-H226): > 100 µM (inactive)
- GI50 (U-251): > 100 µM (inactive)
- GI50 (RPMI-8226): > 100 µM (inactive)
- GI50 (HCC 2998): > 100 µM (inactive)
- GI50 (SK-MEL-28): > 100 µM (inactive)
- GI50 (T47D): > 100 µM (inactive)
- GI50 (IGROV-1): > 100 µM (inactive)
- GI50 (HCT-116): > 100 µM (inactive)
- GI50 (MOLT-4): > 100 µM (inactive)
- GI50 (SK-OV-3): > 100 µM (inactive)
- GI50 (KM12): > 100 µM (inactive)
- GI50 (BT-549): 34.5 µM (inactive)
- GI50 (COLO 205): > 100 µM (inactive)
- GI50 (M14): > 100 µM (inactive)
- GI50 (SNB-19): > 100 µM (inactive)
- GI50 (HCT-15): > 100 µM
- GI50 (OVCAR-3): > 100 µM (inactive)
- GI50 (EKVX): > 100 µM (inactive)
- GI50 (CCRF-CEM): > 100 µM (inactive)
- GI50 (MDA-MB-435): > 100 µM (inactive)
- GI50 (MCF7): > 100 µM (inactive)
- GI50 (SF-295): > 100 µM (inactive)
- GI50 (OVCAR-8): > 100 µM (inactive)
- GI50 (NCI/ADR-RES): > 100 µM (inactive)
- GI50 (TK-10): > 100 µM (inactive)
- GI50 (UACC-62): > 100 µM (inactive)
- GI50 (HOP-92): > 100 µM (inactive)
- GI50 (HT-29): > 100 µM (inactive)
- GI50 (K562): > 100 µM (inactive)
- GI50 (OVCAR-4): > 100 µM (inactive)
- GI50 (SK-MEL-5): > 100 µM (inactive)
- GI50 (MDA-MB-231): > 100 µM (inactive)
- GI50 (MDA-N): > 100 µM (inactive)
- GI50 (HOP-62): > 100 µM (inactive)
- GI50 (SN12C): > 100 µM (inactive)
- GI50 (SF-268): > 100 µM (inactive)
- GI50 (SK-MEL-2): 69.5 µM (inactive)
- GI50 (NCI-H23): > 100 µM (inactive)
- GI50 (RXF 393): > 100 µM (inactive)
- GI50 (786-0): > 100 µM (inactive)
- GI50 (A498): > 100 µM (inactive)
- GI50 (SF-539): > 100 µM (inactive)
- GI50 (SNB-75): 90.8 µM (inactive)
- GI50 (UO-31): > 100 µM (inactive)
- GI50 (A549): > 100 µM (inactive)

Compound: CC(=O)O[C@H]1CC[C@H]2[C@@H]3CCc4cc(O)c(I)cc4[C@H]3CC[C@]12C
- GI50 (DU-145): 14.8 µM (inactive)
- GI50 (NCI-H460): 12.9 µM (inactive)
- GI50 (OVCAR-5): 18.2 µM (inactive)
- GI50 (ACHN): 14.9 µM (inactive)
- GI50 (UACC-257): 16.4 µM (inactive)
- GI50 (Hs-578T): 14.9 µM (inactive)
- GI50 (SW-620): 13 µM (inactive)
- GI50 (Malme-3M): 16.9 µM (inactive)
- GI50 (NCI-H226): 14.9 µM (inactive)
- GI50 (U-251): 14.7 µM (inactive)
- GI50 (NCI-H522): 11.8 µM (inactive)
- GI50 (RPMI-8226): 12.4 µM (inactive)
- GI50 (HCC 2998): 15 µM (inactive)
- GI50 (SK-MEL-28): 15.3 µM (inactive)
- GI50 (T47D): 14.7 µM (inactive)
- GI50 (IGROV-1): 16.9 µM (inactive)
- GI50 (MOLT-4): 4.73 µM (inactive)
- GI50 (SK-OV-3): 15.7 µM (inactive)
- GI50 (KM12): 12 µM (inactive)
- GI50 (BT-549): 14.8 µM (inactive)
- GI50 (HL-60): 5.21 µM (inactive)
- GI50 (COLO 205): 18.1 µM (inactive)
- GI50 (M14): 13.6 µM (inactive)
- GI50 (SNB-19): 15.8 µM (inactive)
- GI50 (HCT-15): 10.5 µM
- GI50 (OVCAR-3): 16.6 µM (inactive)
- GI50 (EKVX): 13.1 µM (inactive)
- GI50 (SR): 10.6 µM (inactive)
- GI50 (CCRF-CEM): > 10 µM (inactive)
- GI50 (MCF7): 17 µM (inactive)
- GI50 (LOX IMVI): 15.1 µM (inactive)
- GI50 (SF-295): 15.3 µM (inactive)
- GI50 (OVCAR-8): 18.3 µM (inactive)
- GI50 (NCI/ADR-RES): 17.6 µM (inactive)
- GI50 (TK-10): 19.3 µM (inactive)
- GI50 (HT-29): 17.7 µM (inactive)
- GI50 (K562): 10.6 µM (inactive)
- GI50 (OVCAR-4): 13.6 µM (inactive)
- GI50 (SK-MEL-5): 3.83 µM (inactive)
- GI50 (CAKI-1): 16.1 µM (inactive)
- GI50 (MDA-MB-231): 3.64 µM (inactive)
- GI50 (MDA-N): 15.9 µM (inactive)
- GI50 (SF-268): 13.8 µM (inactive)
- GI50 (PC-3): 6.12 µM (inactive)
- GI50 (SK-MEL-2): 19 µM (inactive)
- GI50 (NCI-H23): 12.5 µM (inactive)
- GI50 (786-0): 14.1 µM (inactive)
- GI50 (SF-539): 15.2 µM (inactive)
- GI50 (SNB-75): 13.4 µM (inactive)
- GI50 (UO-31): 14 µM (inactive)
- GI50 (A549): 15.3 µM (inactive)

Compound: COC(=O)C1=C(O)C(C(=O)OC)[C@]2(O)[C@H](C(=O)OC)[C@H]1C[C@@H](c1ccccc1OC)[C@H]2C(=O)OC (stereo partly specified)
- GI50 (DU-145): 5.07 µM (inactive)
- GI50 (NCI-H460): 4.51 µM (inactive)
- GI50 (OVCAR-5): 6.08 µM (inactive)
- GI50 (ACHN): 6.25 µM (inactive)
- GI50 (UACC-257): 9.64 µM (inactive)
- GI50 (Hs-578T): 2.49 µM (inactive)
- GI50 (SW-620): 4.25 µM (inactive)
- GI50 (Malme-3M): 2.83 µM (inactive)
- GI50 (NCI-H226): 5.4 µM (inactive)
- GI50 (U-251): 6.56 µM (inactive)
- GI50 (NCI-H522): 1.84 µM (inactive)
- GI50 (RPMI-8226): 2.17 µM (inactive)
- GI50 (HCC 2998): 10.5 µM (inactive)
- GI50 (SK-MEL-28): 7.87 µM (inactive)
- GI50 (T47D): 10.4 µM (inactive)
- GI50 (IGROV-1): 3.33 µM (inactive)
- GI50 (HCT-116): 3.65 µM (inactive)
- GI50 (MOLT-4): 3.59 µM (inactive)
- GI50 (SK-OV-3): 4.33 µM (inactive)
- GI50 (KM12): 6.14 µM (inactive)
- GI50 (BT-549): 3.15 µM (inactive)
- GI50 (HL-60): 3.29 µM (inactive)
- GI50 (COLO 205): 4.55 µM (inactive)
- GI50 (M14): 2.88 µM (inactive)
- GI50 (SNB-19): 5.24 µM (inactive)
- GI50 (HCT-15): 3.31 µM
- GI50 (OVCAR-3): 6.04 µM (inactive)
- GI50 (EKVX): 8.07 µM (inactive)
- GI50 (SR): 1.93 µM (inactive)
- GI50 (CCRF-CEM): 3.56 µM (inactive)
- GI50 (MDA-MB-435): 2.71 µM (inactive)
- GI50 (LOX IMVI): 2.79 µM (inactive)
- GI50 (SF-295): 6.08 µM (inactive)
- GI50 (OVCAR-8): 2.86 µM (inactive)
- GI50 (NCI/ADR-RES): 2.61 µM (inactive)
- GI50 (TK-10): 14.1 µM (inactive)
- GI50 (UACC-62): 4.24 µM (inactive)
- GI50 (HOP-92): 2.34 µM (inactive)
- GI50 (HT-29): 4.82 µM (inactive)
- GI50 (K562): 4.38 µM (inactive)
- GI50 (OVCAR-4): 4.95 µM (inactive)
- GI50 (SK-MEL-5): 3.64 µM (inactive)
- GI50 (CAKI-1): 3.99 µM (inactive)
- GI50 (MDA-MB-231): 9.55 µM (inactive)
- GI50 (MDA-N): 1.98 µM (inactive)
- GI50 (HOP-62): 12.3 µM (inactive)
- GI50 (SN12C): 4.68 µM (inactive)
- GI50 (SF-268): 4.53 µM (inactive)
- GI50 (PC-3): 6.03 µM (inactive)
- GI50 (SK-MEL-2): 6.03 µM (inactive)
- GI50 (NCI-H23): 3.52 µM (inactive)
- GI50 (RXF 393): 5.06 µM (inactive)
- GI50 (786-0): 7.76 µM (inactive)
- GI50 (A498): 3.53 µM (inactive)
- GI50 (SF-539): 2.71 µM (inactive)
- GI50 (SNB-75): 10.7 µM (inactive)
- GI50 (UO-31): 10 µM (inactive)
- GI50 (A549): 3.85 µM (inactive)
